Results from patent publication US20250276100A1, “DEVELOPMENT OF NTSR TARGETED AGENTS FOR IMAGING AND THERAPY APPLICATIONS” (THE UNIVERSITY OF NORTH CAROLINA AT CHAPEL HILL, priority 2022, published 2025).
Entries after “also recorded” stand apart in the source; their conditions may differ. Read-outs that look alike come from different tables or passages of the source. Blank lines part the entries; values can stand above or below the compound they belong to. Where a SMILES comes first, the peptide text is derived from it. [ ]: non-standard residue; d: D form. The star is where a group is joined. Gly(1-amidinopiperidin-4-yl) = N=C(N)N1CCC([C@H](N)C(=O)O)CC1; Gly(piperidin-4-yl) = N[C@H](C(=O)O)C1CCNCC1; NMeR = CN[C@@H](CCCNC(=N)N)C(=O)O; Tle = CC(C)(C)[C@H](N)C(=O)O; X1 = O=S(=O)(CCOCCOCCF)CC*

How the values were obtained:
[1] = tested on: tumor
From the text: Copper-64 (t1/2=12.7 hr) decays by β+ (20%) and β− emission (37%), as well as electron capture (43%), making it well suited for radiolabeling proteins, antibodies and peptides, for both PET imaging (β+) and therapy (β+ and β−). Limitations to the chelating agents currently used with ^64Cu include significant loss of ^64Cu from the conjugate, leading to high uptake in the liver. In order to overcome this limitation, a new class of bifunctional chelators (BFCs) based on the hexaazamacrobicyclic sarcophagine cage SarAr (1-N-(4-aminobenzyl)-3,6,10,13,16,19-hexaazabicyclo[6.6.6]-eicosane-1,8-diamine) was synthesized. These ligands coordinate metal ions such as Cu^2+ within the multiple macrocyclic rings comprising the Sar cage structure, yielding extraordinarily stable complexes that are inert to dissociation of the metal ion. The functionalization approach of Sar cage was improved through a direct alkylation (SN2) reaction.
However, the kidneys have much higher tracer uptake compared with liver, while the pattern was reversed on PET imaging (Cu-64 falls off DOTA and leads to high liver uptake).

[2] = side by side comparison of 64Cu labeled SR-CP-05 with NT peptide analogs and 3BP-227 (FIG. 8), tumor uptake and contrast; format: in vivo; conditions: tumor; for tissue uptake: mouse, NT peptide analogs, read-out: absolute tumor uptake value; for tissue uptake at 1 hr: FIG. 8 side by side comparison, 1 hr post injection
From the text: (§1) The NTSR1 targeted imaging agent was constructed based on NTS peptide derivatives. Although high tumor-to-background contrast could be obtained, the absolute tumor uptake was moderate with fast clearance from the subject. Moreover, these NTSR1 binding peptides are generally agonists of NTSR1, which may promote tumor progress at high concentration. This may not be a concern for PET imaging due to the limited amount, but it could be a potential risk in treatment. Antagonistic SR142948A based agents were developed, the lead agent being 3BP-227. Side by side comparisons between the lead agent SR-CP-05 and previously reported agents were performed. […] Importantly, SR-CP-05 maintained >15% ID/g tumor uptake at 48 hr post injection. In contrast, the tumor uptake of 3BP-227 decreased to 2.3% ID/g at 24 hr post injection. The unique distribution profile of SR-CP-05 can provide an imaging and radionuclide-based therapy agent targeting NTSR1.
(§2) SR-CP-05 was discovered to be well suited for therapy applications. […] Clearly, the fast clearance may be acceptable from an imaging point of view, but these ligands are not suited for therapeutic applications. […] Importantly, high contrast (tumor/background >20) was obtained at 1 hr post injection and the washout was minimal even after 48 hr post injection. […] Clearly, SR-CP-05 represents a highly promising ligand for both imaging and therapy applications.
(§3) Solution 1) The discovery of a new NTSR1 ligand SR-CP-05 for targeted imaging and therapy. The introduction of crosslinked polyamines into SR142948A (leading to the new agent, SR-CP-05) could increase the tumor uptake by 10 times compared with peptide based agents. Although the tumor to muscle contrast was reduced somewhat right after injection, the ratio is still >20 at 1 hr post injection. More importantly, the agent stayed within the tumor for up to 48 hr, making it useful for therapeutic applications as well. Side by side comparisons were made between SR-CP-05 and previously reported agents. […] Importantly, high contrast (tumor/muscle >20) was also obtained for SR-CP-05 at 1 hr post injection and the washout is minimal after 48 hr post injection (compared with tumor/muscle >3 at 1 hr post injection for 3BP-227). […] The unique distribution profile of SR-CP-05 provides an imaging and radionuclide-based therapy targeting NTSR1.

[3] = target: T1, NTSR1 (Homo sapiens, UniProt P30989); test: as above; format: in vivo
T1 construct: from tissue; host or cells: NTSR1-positive tumour in vivo
From the text: as §1, §2, §3

[4] = target: T1, NTSR1; test: in vivo distribution profile of SR-CP-05 derivatives (FIG. 13)
[5] = microPET imaging and biodistribution of 18F labeled NTS peptide agent in PC3 tumor-bearing nude mice; format: in vivo; conditions: male, athymic nude, mouse, PC3 tumor model; for tissue to tissue ratio at 3 h: biodistribution at 3 hr post injection
Method: (§4) The arrow indicates tumor. […]
(§5) Stabilized NTS peptide derivatives and constructed NTSR1 PET agents have been developed. A stabilized NTS analog with a Cys for ^18F labeling (Cys-NTSmut: Cys-pipGly-Pro-pipAmGly-Arg-Pro-Tyr-tBuGly-Leu-OH) was designed. […] Biodistribution studies were performed at 3 hr post injection, showing the tumor to muscle, liver, and kidney ratios at 19.4±5.5, 15.6±4.1, and 3.0±0.3, respectively. […] Despite the high contrast, its tumor retention is low.
(§6) Robust ^18F-labeling methods for facile preparation of ^18F-NTS agents based on NT peptide derivatives were developed. As one of the commonly used PET radioisotopes, ^18F can be easily produced in high quantities on a medical cyclotron with an ideal half-life of 110 min for imaging applications. The half-life of ^18F is sufficient to allow synthesis, transportation, and imaging procedures to be extended over several hours, while the patient is subjected to a limited amount of radiation exposure. A platform technology based on vinyl sulfone and TTCO ligation was developed, both of which are highly efficient for ^18F PET probe construction. After establishing efficient ^18F labeling methods, a stabilized NTS analog was designed with a Cys for ^18F labeling (Cys-NTSmut: Cys-pipGly-Pro-pipAmGly-Arg-Pro-Tyr-tBuGly-Leu-OH). Both ^18F-VS and TTCO ligation have been used to construct ^18F labeled PET agents targeting NTSR1.

[6] = tested on: PC3 tumor; test: as above; format: in vivo
Method: as §4, §5, §6

[7] = PC3 tumor model, biodistribution at 3 hr post injection

T1 sequence (P30989 whole entry): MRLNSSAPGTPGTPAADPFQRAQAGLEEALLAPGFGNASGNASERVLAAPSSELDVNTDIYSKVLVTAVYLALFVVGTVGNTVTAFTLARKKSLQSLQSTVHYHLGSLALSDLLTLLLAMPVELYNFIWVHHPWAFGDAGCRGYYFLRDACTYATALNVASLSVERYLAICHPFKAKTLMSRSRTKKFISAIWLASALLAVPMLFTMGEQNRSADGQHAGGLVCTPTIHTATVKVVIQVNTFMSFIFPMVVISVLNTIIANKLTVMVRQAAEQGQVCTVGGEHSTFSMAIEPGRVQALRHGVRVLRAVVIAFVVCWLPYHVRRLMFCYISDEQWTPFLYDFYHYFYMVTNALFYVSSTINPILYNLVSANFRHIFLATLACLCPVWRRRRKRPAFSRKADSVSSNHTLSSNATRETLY

Structure (SMILES): CC[N+]1=C(/C=C/C=C/C=C2/N(CCCCCC(=O)NCCCC[C@H](NC(=O)CN3CCN(CC(=O)O)CCN(CC(=O)O)CCN(CC(=O)O)CC3)C(=O)NCCCCCC(=O)N[C@@H](CC(=O)O)C(=O)NCC(=O)N[C@@H](CCC(=O)O)C(=O)NC(C)C(=O)O)c3ccc4c(S(=O)(=O)O)cc(S(=O)(=O)O)cc4c3C2(C)C)C(C)(C)c2c1ccc1c(S(=O)(=O)[O-])cc(S(=O)(=O)O)cc21 (some centres unmarked) [DOTA-K(Cy5.5)-Ahx-DGEA]
in vivo distribution pattern [1]: discrepancy between optical and PET imaging
ex vivo distribution pattern ([1]; in vivo): discrepancy between optical and PET imaging

Structure (SMILES): CC(=O)N[C@@H](CCCCN)C(=O)N1CCC[C@H]1C(=O)N(C)[C@@H](CCCNC(=N)N)C(=O)N[C@@H](CCCNC(=N)N)C(=O)N1CCC[C@H]1C(=O)N[C@@H](Cc1ccc(O)cc1)C(=O)N[C@H](C(=O)N[C@@H](CC(C)C)C(=O)O)C(C)(C)C [NTS20.3, reference compound] (Ac-KP[NMeR]RPY[Tle]L-OH; N-terminus and C-terminus assumed)
tissue uptake [2]: ~1.5 %ID/g

Structure (SMILES): CC(C)C[C@H](NC(=O)[C@@H](NC(=O)[C@H](Cc1ccc(O)cc1)NC(=O)[C@@H]1CCCN1C(=O)[C@H](CCCNC(=N)N)NC(=O)[C@@H](NC(=O)[C@@H]1CCCN1C(=O)[C@@H](N)C1CCNCC1)C1CCN(C(=N)N)CC1)C(C)(C)C)C(=O)O [NTSmut, reference compound] (H-[Gly(piperidin-4-yl)]P[Gly(1-amidinopiperidin-4-yl)]RPY[Tle]L-OH; N-terminus and C-terminus assumed)
tissue uptake [2]: ~1.5 %ID/g

tumor/background contrast ([3]; 1 hr post injection): > 20
tumor/muscle ratio ([3]; 1 hr post injection): > 20
tumor uptake ([3]; FIG. 8 side by side comparison, 1 hr post injection): > 15 % ID/g
tumor washout ([3]; after 48 hr (two days) post injection): only a minimal amount of tumor wash out
time the agent stayed within the tumor ([3]; in vivo): up to 48 hr
tumor uptake ([3]; in vivo): both high and persistent tumor uptake
tumor uptake higher than 3BP-227 ([3]; side by side comparison): 75%
tissue uptake at 24 hr ([2]; 24 hr post injection): > 15 %ID/g
tissue uptake at 48 hr ([2]; 48 hr post injection): > 15 %ID/g
tissue uptake at 1 hr [2]: 15.5 %ID/g
tissue uptake at 1 hr ([2]; other: injection (kind of injection not stated)): 15.6 %ID/g
tissue uptake at 1 hr ([2]; other: injection): 15.6 %ID/g
liver uptake ([4]; in vivo): still relatively high
Structure (SMILES): CNC(=O)c1ccc(-n2nc(C(=O)NC3(C(=O)O)C4CC5CC(C4)CC3C5)cc2-c2c(OC)cccc2OC)c(C(C)C)c1 (centres unmarked) [SR-CP-05]
overall side by side comparison ([3]; 64Cu labeled, FIG. 8): outperforms both NT peptide analogs and other agents based on SR142948A

tumor uptake relative to SR-CP-05 ([4]; in vivo): less than half of SR-CP-05
Structure (SMILES): COc1cccc(OC)c1-c1cc(C(=O)NC2(C(=O)O)C3CC4CC(C3)CC2C4)nn1-c1ccc(C(=O)N(C)CCCN(C)C(=O)CN2CCCN3CCN(CCCN(CC(=O)O)CC3)CC2)cc1C(C)C (centres unmarked) [SR-CP-18]
distribution ([4]; 24 hr time point, FIG. 13): mainly showed tumor accumulation; also recorded: high contrast

tissue to tissue ratio at 3 h ([5]; tumor and kidney, read-out: tumor/kidney ratio): 3 ± 0.3
tissue to tissue ratio at 3 h ([5]; tumor and liver, read-out: tumor/liver ratio): 15.6 ± 4.1
tissue to tissue ratio at 3 h ([5]; tumor and muscle, read-out: tumor/muscle ratio): 19.4 ± 5.5
tissue uptake [5]: 1.3 %ID/g
background in major tissues/organs, including blood, muscle, liver and kidneys ([6]; PC3 tumor model): low background
clearance from mice ([6]; PC3 tumor model): cleared out from mice within a few hours
tumor retention ([6]; PC3 tumor model): low
tumor uptake ([6]; PC3 tumor model): 1.3±0.1 % ID/g
tumor/kidney ratio [6, 7]: 3.0±0.3
tumor/liver ratio [6, 7]: 15.6±4.1
tumor/muscle ratio [6, 7]: 19.4±5.5
Structure (SMILES): CC(C)C[C@H](NC(=O)[C@@H](NC(=O)[C@H](Cc1ccc(O)cc1)NC(=O)[C@@H]1CCCN1C(=O)[C@H](CCCNC(=N)N)NC(=O)[C@@H](NC(=O)[C@@H]1CCCN1C(=O)[C@@H](NC(=O)[C@@H](N)CSCCS(=O)(=O)CCOCCOCCF)C1CCNCC1)C1CCN(C(=N)N)CC1)C(C)(C)C)C(=O)O [^18F-VS-Cys-NTSmut] (H-C(X1)[Gly(piperidin-4-yl)]P[Gly(1-amidinopiperidin-4-yl)]RPY[Tle]L-OH; N-terminus assumed)
tumor uptake in the presence of cold NTS peptide (receptor specificity) ([6]; PC3 tumor, blocking with cold NTS peptide, listed as 18F-DEG-VS-NTS): successfully blocked; also recorded: efficiently blocked
